In ChEMBL document CHEMBL5154817, “Structure-activity relationship studies on O-alkylamino-tethered salicylamide derivatives with various amino acid linkers as potent anticancer agents” (Eur J Med Chem, 2022) one finds IC50 data, which are given here for 50 compounds.

Molecules are shown by their SMILES.

The subject of data set [1] is MCF7. Kind of data set: Antiproliferative activity against human MCF7 cells assessed as inhibition of cell growth incubated for 72 hrs by MTT assay. As to conditions: MCF7, 72 h. Format: functional, cell-based. (In general: Tetrazolium dyes change colour on reduction, which living cells bring about.)
For data set [2], the system named is MDA-MB-231. Kind of data set: Antiproliferative activity against human MDA-MB-231 cells assessed as inhibition of cell growth incubated for 72 hrs by MTT assay. The settings on record: MDA-MB-231, 72 h. It counts as functional, cell-based.
The test system of data set [3] is MDA-MB-468. Kind of data set: Antiproliferative activity against human MDA-MB-468 cells assessed as inhibition of cell growth incubated for 72 hrs by MTT assay. The settings on record: MDA-MB-468, 72 h. It counts as functional, cell-based.
Data set [4] deals with T47D. Kind of data set: Antiproliferative activity against human T47D cells assessed as inhibition of cell growth incubated fro 72 hrs by MTT assay. It counts as functional, cell-based.
Data set [5] can be described thus: Cytotoxicity against human MCF-10A cells incubated for 72 hrs by MTT assay. It counts as toxicity, cell-based.

In general, IC50 refers to the midpoint of a concentration-inhibition curve. For the compound `CC(C)[C@H](NC(=O)c1cc(Cl)ccc1OCCCN)C(=O)Nc1ccc([N+](=O)[O-])cc1Cl`, the IC50 in data set [1] is more than 10 µM; in data set [2] it was 6.77 µM.
In the same order, the values of `CC(=O)NCCOc1ccc(Cl)cc1C(=O)N[C@H](C(=O)Nc1ccc([N+](=O)[O-])cc1Cl)C(C)C` are more than 10 µM and more than 10 µM.
In the case of `O=C(N[C@@H](Cc1ccccc1)C(=O)Nc1cc(C(F)(F)F)cc(C(F)(F)F)c1)c1cc(Cl)ccc1OC1CCNCC1`, the IC50 in data set [3] came to 2.63 µM; in data set [1] it was 2.63 µM; in data set [4], 3.19 µM; in data set [2] it was 2.32 µM. In data set [5], the IC50 at 72 h was 5.9 µM.
Consider `CC(C)[C@H](NC(=O)c1cc(Cl)ccc1OCCCCN)C(=O)Nc1ccc([N+](=O)[O-])cc1Cl`, for which the IC50 in data set [1] was more than 10 µM; in data set [2] it was 5.59 µM.
With `CC(C)[C@H](NC(=O)c1cc(Cl)ccc1OCCNC(=O)OC(C)(C)C)C(=O)Nc1ccc(F)c(F)c1`, the results for the IC50 in data set [1] and in data set [2] were more than 10 µM and 3.72 µM, respectively.
In the same order, the values of `CC(C)[C@H](NC(=O)c1cc(Cl)ccc1OCCNC(=O)OC(C)(C)C)C(=O)Nc1ccc(C(F)(F)F)cc1Cl` are more than 10 µM and more than 10 µM.
Consider `C=C(NC(=O)c1cc(Cl)ccc1OCCNC(=O)OC(C)(C)C)C(=O)Nc1ccc([N+](=O)[O-])cc1Cl`, for which the IC50 came out at 4.48 µM in data set [1] and 5.34 µM in data set [2].
Turning to `CC(C)(C)OC(=O)N1CCC(Oc2ccc(Cl)cc2C(=O)N[C@@H](Cc2ccccc2)C(=O)Nc2cc(C(F)(F)F)cc(C(F)(F)F)c2)CC1`, the IC50 in data set [1] and in data set [2] was more than 10 µM throughout.
As to `CC(C)[C@H](NC(=O)c1cc(Cl)ccc1OCCNC(=O)OC(C)(C)C)C(=O)Nc1cc(C(F)(F)F)cc(C(F)(F)F)c1`, the IC50 in data set [1] and in data set [2] was more than 10 µM throughout.
Consider `CC(C)[C@H](NC(=O)c1cc(Cl)ccc1OCCN)C(=O)Nc1ccc(C(F)(F)F)cc1Cl`, for which the IC50 in data set [1] was more than 10 µM; in data set [2], 5.44 µM.
Taken in the same sequence, the figures for `CC(C)(C)OC(=O)CC[C@H](NC(=O)c1cc(Cl)ccc1OCCN)C(=O)Nc1ccc([N+](=O)[O-])cc1Cl` were 3.08 µM and 5.99 µM.
Taken in the same sequence, the figures for `CC(C)COC(=O)NCCOc1ccc(Cl)cc1C(=O)N[C@H](C(=O)Nc1ccc([N+](=O)[O-])cc1Cl)C(C)C` were 10.1 µM and 4.9 µM.
Taken in the same sequence, the figures for `CC[C@@H](C)[C@H](NC(=O)c1cc(Cl)ccc1OCCN)C(=O)Nc1ccc([N+](=O)[O-])cc1Cl` were more than 10 µM and 6.18 µM.
With `CC(C)(C)OC(=O)NCCOc1ccc(Cl)cc1C(=O)N[C@@H](Cc1ccccc1)C(=O)Nc1cc(C(F)(F)F)cc(C(F)(F)F)c1`, the IC50 in data set [1] and in data set [2] was more than 10 µM throughout.
As to `CC(C)[C@H](NC(=O)c1cc(Cl)ccc1OC1CCN(C(=O)OC(C)(C)C)CC1)C(=O)Nc1ccc([N+](=O)[O-])cc1Cl`, the IC50 in data set [1] and in data set [2] was more than 10 µM each time.
On to `CC(C)[C@H](NC(=O)c1cc(Cl)ccc1OCCNC(=O)OC(C)(C)C)C(=O)Nc1cc(F)cc(C(F)(F)F)c1`, for which the IC50 in data set [1] worked out at 11.5 µM; in data set [2] it was 7.87 µM.
In the same order, the values of `CSCC[C@H](NC(=O)c1cc(Cl)ccc1OCCN)C(=O)Nc1ccc([N+](=O)[O-])cc1Cl` are more than 10 µM and more than 10 µM.
In the same order, the values of `NCCOc1ccc(Cl)cc1C(=O)N[C@@H](Cc1ccccc1)C(=O)Nc1cc(C(F)(F)F)cc(C(F)(F)F)c1` are 2.95 µM and 4.92 µM.
As to `CC(C)(C)OC(=O)NCCOc1ccc(Cl)cc1C(=O)N[C@@H](Cc1ccccc1)C(=O)Nc1ccc2c(c1)S(=O)(=O)C=C2`, the IC50 in data set [1] was determined as 1.53 µM; in data set [4] it was 1.46 µM; in data set [2], 1.17 µM. The same compound returned an IC50 at 72 h in data set [5] of 1.73 µM.
For the compound `CSCC[C@H](NC(=O)c1cc(Cl)ccc1OCCNC(=O)OC(C)(C)C)C(=O)Nc1ccc([N+](=O)[O-])cc1Cl`, the IC50 in data set [1] and in data set [2] was more than 10 µM throughout.
For the compound `NCCOc1ccc(Cl)cc1C(=O)Nc1ccc([N+](=O)[O-])cc1Cl`, the IC50 in data set [3] was determined as 5.05 µM; in data set [1] it was 4.14 µM; in data set [4] it was 1.88 µM; in data set [2] it was 3.48 µM.
`O=C(Nc1ccc([N+](=O)[O-])cc1Cl)c1cc(Cl)ccc1O` [NICLOSAMIDE]: the figures for the IC50 in data set [1] and in data set [2] were 8.13 µM and 1.78 µM, respectively.
Taken in the same sequence, the figures for `CC(C)[C@H](NC(=O)c1cc(Cl)ccc1OCCN)C(=O)Nc1cc(F)cc(C(F)(F)F)c1` were more than 10 µM and 4.34 µM.
With `NCCOc1ccc(Cl)cc1C(=O)N[C@H](Cc1ccccc1)C(=O)Nc1ccc([N+](=O)[O-])cc1Cl`, the IC50 in data set [1] was 4.89 µM; in data set [2] it was 5.02 µM.
As to `CC(C)[C@H](NC(=O)c1cc(Cl)ccc1OCCNC(=O)OCc1ccccc1)C(=O)Nc1ccc([N+](=O)[O-])cc1Cl`, the IC50 in data set [1] and in data set [2] was more than 10 µM throughout.
Consider `CC(C)[C@H](NC(=O)c1cc(Cl)ccc1OC1CCNCC1)C(=O)Nc1ccc([N+](=O)[O-])cc1Cl`, for which the IC50 is more than 10 µM in data set [1] and 5.23 µM in data set [2].
In the same order, the values of `O=C(N[C@@H](Cc1ccccc1)C(=O)Nc1ccc([N+](=O)[O-])cc1Cl)c1cc(Cl)ccc1OC1CCNCC1` are 4.48 µM and 3.24 µM.
Consider `CC(C)(C)OCC(NC(=O)c1cc(Cl)ccc1OCCNC(=O)OC(C)(C)C)C(=O)Nc1ccc([N+](=O)[O-])cc1Cl` (single isomer, unassigned), for which the IC50 in data set [1] and in data set [2] was more than 10 µM throughout.
With `COC(=O)NCCOc1ccc(Cl)cc1C(=O)N[C@H](C(=O)Nc1ccc([N+](=O)[O-])cc1Cl)C(C)C`, the IC50 in data set [1] and in data set [2] was more than 10 µM throughout.
For the compound `CC(C)(C)OC(=O)NCCOc1ccc(Cl)cc1C(=O)N[C@@H](Cc1ccc(O)cc1)C(=O)Nc1ccc([N+](=O)[O-])cc1Cl`, the IC50 in data set [1] is 8.81 µM; in data set [2] it was more than 10 µM.
Taken in the same sequence, the figures for `C[C@H](NC(=O)c1cc(Cl)ccc1OCCN)C(=O)Nc1ccc([N+](=O)[O-])cc1Cl` were more than 10 µM and more than 10 µM.
As to `CC(C)[C@H](NC(=O)c1cc(Cl)ccc1OCCN)C(=O)Nc1cc(C(F)(F)F)cc(C(F)(F)F)c1`, the IC50 in data set [1] was 6.01 µM; in data set [2], 5.43 µM.
Taken in the same sequence, the figures for `CC(C)(C)OC(=O)CC[C@H](NC(=O)c1cc(Cl)ccc1OCCNC(=O)OC(C)(C)C)C(=O)Nc1ccc([N+](=O)[O-])cc1Cl` were more than 10 µM and more than 10 µM.
In the same order, the values of `NCCOc1ccc(Cl)cc1C(=O)NCC(=O)Nc1ccc2c(c1)S(=O)(=O)C=C2` are 9.44 µM and 6.37 µM.
Take `CC(C)(C)OCC(NC(=O)c1cc(Cl)ccc1OCCN)C(=O)Nc1ccc([N+](=O)[O-])cc1Cl` (single isomer, unassigned): the IC50 amounted to 1.62 µM in data set [1] and 3.22 µM in data set [2].
For the compound `CC(C)(C)OC(=O)NCCOc1ccc(Cl)cc1C(=O)N[C@@H](CO)C(=O)Nc1ccc([N+](=O)[O-])cc1Cl`, the IC50 in data set [1] and in data set [2] was more than 10 µM each time.
On to `CC(C)[C@H](NC(=O)c1cc(Cl)ccc1OCCCCNC(=O)OC(C)(C)C)C(=O)Nc1ccc([N+](=O)[O-])cc1Cl`, for which the IC50 in data set [1] and in data set [2] was more than 10 µM in each case.
On to `CC(C)[C@H](NC(=O)c1cc(Cl)ccc1OCCN)C(=O)Nc1ccc([N+](=O)[O-])cc1Cl`, for which the IC50 in data set [1] and in data set [2] was more than 10 µM throughout.
Turning to `CC(C)(C)OC(=O)NCCOc1ccc(Cl)cc1C(=O)NCC(=O)Nc1ccc2c(c1)S(=O)(=O)C=C2`, the values for the IC50 in data set [1] and in data set [2] were 1.43 µM and 2.08 µM, respectively.
For the compound `CC[C@@H](C)[C@H](NC(=O)c1cc(Cl)ccc1OCCNC(=O)OC(C)(C)C)C(=O)Nc1ccc([N+](=O)[O-])cc1Cl`, the figures for the IC50 in data set [1] and in data set [2] were 10.5 µM and 4.02 µM, respectively.
As to `CC(C)[C@H](NC(=O)c1cc(Cl)ccc1OCCN)C(=O)Nc1ccc2c(c1)S(=O)(=O)C=C2`, the IC50 in data set [1] is 4.35 µM; in data set [2], 5.95 µM.
In the same order, the values of `CC(C)C[C@H](NC(=O)c1cc(Cl)ccc1OCCN)C(=O)Nc1ccc([N+](=O)[O-])cc1Cl` are more than 10 µM and more than 10 µM.
As for `NCCOc1ccc(Cl)cc1C(=O)N[C@@H](Cc1ccccc1)C(=O)Nc1ccc2c(c1)S(=O)(=O)C=C2`, the IC50 in data set [3] came out at 3.53 µM; in data set [1], 1.62 µM; in data set [4], 1.58 µM; in data set [2], 1.4 µM. In data set [5], this compound gave an IC50 at 72 h of 2.03 µM.
As for `CC(C)(C)OC(=O)NCCOc1ccc(Cl)cc1C(=O)N[C@@H](Cc1ccccc1)C(=O)Nc1ccc([N+](=O)[O-])cc1Cl`, the IC50 in data set [1] and in data set [2] was more than 10 µM each time.
On to `CC(C)[C@H](NC(=O)c1cc(Cl)ccc1OCCCNC(=O)OC(C)(C)C)C(=O)Nc1ccc([N+](=O)[O-])cc1Cl`, for which the IC50 in data set [1] and in data set [2] was more than 10 µM each time.
`CC(C)(C)OC(=O)N1CCC(Oc2ccc(Cl)cc2C(=O)N[C@@H](Cc2ccccc2)C(=O)Nc2ccc([N+](=O)[O-])cc2Cl)CC1`: the IC50 in data set [1] and in data set [2] was more than 10 µM each time.
For the compound `CC(C)C[C@H](NC(=O)c1cc(Cl)ccc1OCCNC(=O)OC(C)(C)C)C(=O)Nc1ccc([N+](=O)[O-])cc1Cl`, the IC50 in data set [1] and in data set [2] was more than 10 µM in each case.
`NCCOc1ccc(Cl)cc1C(=O)N[C@@H](Cc1ccccc1)C(=O)Nc1ccc([N+](=O)[O-])cc1Cl`: the IC50 in data set [1] was 6.58 µM; in data set [2], 7.97 µM.
For `CC(C)[C@H](NC(=O)c1cc(Cl)ccc1OCCN)C(=O)Nc1ccc(F)c(F)c1`, the half-maximal inhibitory concentration (IC50) in data set [1] and in data set [2] was more than 10 µM in each case.
On to `C[C@H](NC(=O)c1cc(Cl)ccc1OCCNC(=O)OC(C)(C)C)C(=O)Nc1ccc([N+](=O)[O-])cc1Cl`, for which the IC50 in data set [1] and in data set [2] was more than 10 µM throughout.
